Tests used:
PANC-1 cells = PANC-1 cells injected into the pancreas, survival and metastasis; type: in vivo, nude mice; conditions: BVZ 25 μg, MIT 0.10 mg/kg, or B+M; compared with PBS
Protocol: FIG. 12. Prolonged survival of mice that received treatment with BVZ and MIT in xenograft models of human pancreatic cancer. PANC-1 cells were injected into the pancreas of nude mice (17 to 20 mice/group). The mice received treatment as described in FIG. 2. The entire experiment was terminated 120 days after tumor-cell injection. A, animal survival was monitored daily until termination of the experiment. Cum, cumulative. B, tumor growth in the pancreas and metastasis in the liver and/or other organs were evaluated and expressed as the incidence (%).
Statistical analysis. Each experiment was performed independently at least twice with similar results; one representative experiment is presented. The significance of the in vitro data was determined using Student's t-test (two-tailed), whereas the significance of the in vivo data was determined using the two-tailed Mann-Whitney U test. For the in vivo experiments, overall survival was calculated by the method of Kaplan and Meier. Log rank test was used to compare the survival duration between groups. P≦0.05 was deemed significant.
Prolonged survival of xenograft models of human pancreatic cancer that received treatment with BVZ and MIT.

[1] = test system: Sp1, EGFR, and VEGF protein expression; test: Western blot of gene expression in PANC-1 cells in vitro; type: cell-based, human; conditions: 100 μg/ml BVZ, 6 to 48 hours
Protocol: FIG. 14. Effects of treatment with BVZ and MIT on the growth of and gene expression in human pancreatic cancer cells in vitro. (A) BxPC3 and (B) PANC-1 cells were incubated for 1 to 5 days in a medium alone or a medium containing 100 μg/ml BVZ. The viable cells were counted every 24 hours. C, PANC-1 cells were incubated for 6 to 48 hours in a medium alone or a medium containing 100 μg/ml BVZ. Total protein lysates were harvested from the cell cultures, and the level of Sp1, EGFR, and VEGF protein expression was determined using Western blot analysis. Equal protein-sample loading was monitored by probing the same membrane filter with an anti-glyceraldehyde-3-phosphate dehydrogenase antibody (GAPDH). […] (D) Cytotoxicity was assessed using the MTT assay, and (E) the level of gene expression was determined using Western blot analysis. NS, nonspecific.
Western blot analysis. Whole-cell lysates were prepared from human pancreatic cancer cell lines and tissues (23). […] Equal protein-sample loading was monitored by probing the same membrane filter with antibodies against anti-β-actin or glyceraldehyde-3-phosphate dehydrogenase (GAPDH) (23). The probe proteins were detected using the Amersham enhanced chemiluminescence system according to the manufacturer's instructions. […]

BON-1 cells = test: Viable cell count in vitro, BON-1; type: cell-based, human; conditions: 0 to 100 μg/ml BVZ, 5 days
Protocol: (§1) FIG. 18. Effects of treatment with BVZ and MIT on the growth of and gene expression in human carcinoid cells in vitro. A. H727 and BON-1 cells were incubated for 5 days in a medium alone or a medium containing 25 to 100 μg/ml BVZ. The viable cells were counted. B. H727 cells were incubated for 5 days in a medium alone or a medium containing 100 μg/ml BVZ. Total protein lysates were harvested from the cell cultures, and the level of Sp1 and VEGF protein expression was determined using Western blot analysis. Equal protein-sample loading was monitored by probing the same membrane filter with an anti-GAPDH. C. H727 and BON-1 cells were treated with MIT at concentrations ranging from 0.1 to 2.5 μM for 24 hours. Cytotoxicity was assessed using the MTT assay.
Effects of treatment with BVZ and MIT on the growth of and gene expression in human LGNET cells. To further determine whether treatment with BVZ directly impacts gene expression in LGNET cells, we incubated H727 and BON-1 cells in a medium alone or a medium containing 0 to 100 μg/ml BVZ for 5 days.

[2] = test system: Sp1, VEGF, EGFR and PDGFA expression; test: Expression of Sp1 and downstream molecules in H727 cells in vitro (Western/Northern blot); type: cell-based, human; conditions: 100 μg/ml BVZ, 5 days
Protocol: FIG. 16. […] H727 cells were incubated in medium or medium containing 0.36 μM MIT for 24 hours. mRNA was extracted for Northern blot analysis of Sp1 expression (A1). H727 and BON-1 cells were incubated in medium or medium containing 0-0.36 μM MIT for 1 to 24 hours. […] B. Chromatin was prepared from the cells and ChIP assay was performed as described in Materials and Methods.
as §1, with “H727 and BON-1 cells were treated with MIT at concentrations ranging from 0.1 to 2.5 μM for 24 hours.” left out
Western blot analysis. […] Equal protein-sample loading was monitored by probing the same membrane filter with an antibody against glyceraldehyde-3-phosphate dehydrogenase (GAPDH) (21). The probe proteins were detected using the Amersham enhanced chemiluminescence system according to the manufacturer's instructions. […]

In the case of bevacizumab [BVZ], the animal survival (PANC-1 cells) is reported as “slightly increased survival rate”, the “expression of Sp1, VEGF and EGFR” value [1] is reported as “did not affect the expression of Sp1 or its major downstream molecules” and the “cell growth in vitro” value (BON-1 cells) is reported as “did not affect the growth”. The “expression of Sp1 and VEGF” value [2] was “did not affect the expression of Sp1 or its major downstream molecule, VEGF”.
